Laboratory results: a melting point compilation (Tetko et al.; mined from patent text by program, amines drawn as free bases though some values may be those of a salt)

melting point [°C] | SMILES
126 to 128 | CCOC(=O)c1nc(NCC(c2ccccc2)c2ccccc2)c2ncn([C@@H]3O[C@H](CO)[C@H]4OC(C)(C)O[C@H]43)c2n1
174 to 175 | CC(C)c1cc(/C=C/C(=O)O)n(Cc2ccc(Cl)cc2Cl)n1
95.5 to 95.7 | O=c1cc(OCc2cccc(Cl)c2)ccn1Cc1ccccc1
184 to 187 | COCCc1nc2c(N)nc3ccccc3c2n1CCOCCNC(=O)c1ccccc1
128 to 131 | COc1ccc(Nc2cc(Cl)nc(SC)n2)cc1
219 to 220 | CC(C)(C)C(NC(=O)CCc1ccccc1)Nc1c(Nc2cccnc2)c(=O)c1=O (configuration not stated)
161 to 163 | CN1CCC(O)(c2cc3ccccc3s2)CC1
145 to 146 | COc1ccc(CO)cc1OCc1nc(-c2ccco2)oc1C
185 to 190 | CCCC(=O)NS(=O)(=O)c1ccc(NC(=O)N2CCc3c(OC)ccc(N4CCN(C)CC4)c3C2)cc1
251 to 253 | CCCc1nc2ccccc2c(=O)n1Cc1ccc(-c2ccccc2-c2nc(=O)o[nH]2)cc1
260 to 261 | Nc1ccc(S(=O)(=O)c2cc(-c3cccc(Cl)c3)nc(N3CCCC3)c2)cc1
114 to 116 | CN(C)C(=S)CCC(c1ccccc1)(c1ccccc1)c1ccccc1
93 to 115 | CC(C)(CC(C)(Sc1cc(C(C)(C)C)c(O)c(C(C)(C)C)c1)Sc1cc(C(C)(C)C)c(O)c(C(C)(C)C)c1)Sc1cc(C(C)(C)C)c(O)c(C(C)(C)C)c1
> 350 | Cc1cc(-n2cc(C#N)nc2C)cc2ccc(=O)[nH]c12
209 to 211 | Cc1nc2cc(Nc3nccc(-c4ccc(N5CCNCC5)nc4)n3)ccc2s1
231 to 234 | COC(=O)C=Cc1cc(O)cc2cc(-c3ccc(O)cc3)oc12
106 | CCCCCC1(O)CCC2(C)C(CCC3C4CCC(C5(C)OCCO5)C4(C)CC(=O)C32)C1 (configuration not stated)
160 to 162 | COc1ccc(C2CC(=O)C(=C3SC4NCCNC4S3)C(=O)C2)cc1 (configuration not stated)
35 to 36 | COCCOc1ccc([N+](=O)[O-])cc1I
170 to 172 | COc1ccccc1-c1ncsc1C(=O)O
137 | CCOC(=O)N1CCN(c2ccc(-n3cnn(C(C)(C)C(=O)c4ccc(Cl)cc4)c3=O)cc2)CC1
252 to 253 | O=C(O)C1Cc2c(n(Cc3ccccc3)c3ccccc23)CN1 (configuration not stated)
191 to 192 | O=C(O)C(=O)c1ccc(OCCOc2cc3ccccc3cc2O)cc1
228 to 230 | CC(C)(CO)NS(=O)(=O)c1cccc(NC(=O)c2cnn3c(C4CC4)cc(-c4ccc(C(F)(F)F)cc4)nc23)c1
> 250 | CC(=CCc1c(C)nc(N)nc1O)c1cc(Cl)ccc1Cl
194 to 195 | N#Cc1cc(-c2ccc(F)cc2)ccn1

SMILES | melting point [°C]
CC(C)(C)OC(=O)N[C@@H]1CN[C@H]2CCO[C@H]21 (relative stereo) | 110 to 111
